Assay [1] concerns the target Carbonic anhydrase 13 (Mus musculus, UniProt Q9D6N1).
Description: Inhibitory activity against mouse carbonic anhydrase XIII expressed in Escherichia coli TOP 10
The target in assay [2] is Carbonic anhydrase V (Homo sapiens, UniProt Q9Y2D0+P35218).
Description: Inhibitory activity against human carbonic anhydrase V expressed in Escherichia coli
Assay [3] addresses Carbonic anhydrase 1 (Homo sapiens, UniProt P00915).
Description: Inhibitory activity against human carbonic anhydrase I expressed in Escherichia coli

As usually defined, the Ki is a dissociation constant, usually derived from enzyme kinetics or from competition with a known ligand. A low value points to tighter binding.

Sequence of Carbonic anhydrase 13 (Q9D6N1 whole entry): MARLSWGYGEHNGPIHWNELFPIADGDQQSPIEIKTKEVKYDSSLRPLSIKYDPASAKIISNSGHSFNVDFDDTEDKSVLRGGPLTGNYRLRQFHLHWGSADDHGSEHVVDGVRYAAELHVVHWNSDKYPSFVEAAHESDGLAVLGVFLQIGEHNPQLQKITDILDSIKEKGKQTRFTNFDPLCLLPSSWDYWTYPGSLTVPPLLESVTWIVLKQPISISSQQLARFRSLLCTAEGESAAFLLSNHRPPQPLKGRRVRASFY
Sequence of Carbonic anhydrase 1 (P00915 whole entry): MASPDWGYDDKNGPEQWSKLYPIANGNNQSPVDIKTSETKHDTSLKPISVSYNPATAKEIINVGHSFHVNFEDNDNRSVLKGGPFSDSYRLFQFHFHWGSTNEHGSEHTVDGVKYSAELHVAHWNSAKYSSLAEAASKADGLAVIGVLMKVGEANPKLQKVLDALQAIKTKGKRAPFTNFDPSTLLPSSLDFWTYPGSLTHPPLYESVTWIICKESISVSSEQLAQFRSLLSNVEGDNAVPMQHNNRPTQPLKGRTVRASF

For `Br` [BROMIDE], affinity in assay [1] was put at a Ki of 45 mM.

For the molecule `N#CO` [CYANATE], in assay [1], the Ki is 0.00025 mM.

Molecule `F` [FLUORIDE ION] registered a Ki in assay [1] of 3 mM.

`Cl` [HYDROCHLORIC ACID]: the Ki in assay [2] came to 156 mM; in assay [1] it was 138 mM.

As for `S` [HYDROGEN SULFIDE], the Ki was 0.02 mM in assay [2] and 5.2 mM in assay [1].

Take `I` [IODIDE]: the inhibition constant (Ki) worked out at 25 mM in assay [2] and 5.4 mM in assay [1].

Consider `O=[N+]([O-])O` [NITRIC ACID], for which the Ki was 16 mM in assay [2] and 36 mM in assay [1].

In turn, `O=NO` [NITROUS ACID] came in with a Ki in assay [1] of 12.6 mM.

With `OB(O)c1ccccc1` [PHENYLBORONIC ACID], the Ki amounted to 4.51 mM in assay [2] and 2.85 mM in assay [1].

Regarding `NS(=O)(=O)O` [SULFAMATE], the Ki in assay [2] stood at 0.12 mM; in assay [1], 21.5 mM.

In assay [1], `NS(N)(=O)=O` [SULFAMIDE] returned a Ki of 0.14 mM.

As to `O=S(=O)(O)O` [SULFURIC ACID], the figures for the Ki in assay [2] and in assay [1] were 680 mM and 267 mM, respectively.

Take `O=S(O)O` [SULFUROUS ACID]: the Ki in assay [3] is 18 mM; in assay [1], 75.5 mM.

The molecule `N#CS` [THIOCYANIC ACID] had a Ki in assay [1] of 0.74 mM.
